The values that follow come from patent US20020013300A1, “Methods for improving size and appearance of a wound” (Avocet Polymer Technologies, Inc., priority 2000, published 2002).

Each structure is given as a SMILES string.

What all share (assay type): in vivo, human patient
Assay [1] deals with hypertrophic scar. Description: Example 2, Patient three: treatment of a tender hypertrophic facial scar. Particulars: 7 weeks. From the text: The patient's chief complaint was irritation with daily grooming and itching from scars located on the face. The patient underwent a medical history and physical examination. […] Clinical progress was followed using photographic and ultrasound imaging as well as a patient self-report. […] Color changes were documented by photographs. Ultrasound images documented the scar size change.

Assay [2] deals with hypertrophic scar. Description: Example 3, Patient 25: treatment of an irritated hypertrophic forearm scar. The protocol:
The patient's chief complaint was an irritated scar of the forearm for more than two years. The patient underwent a medical history and physical examination. On examination, a raised irregularly contoured errythematous hypertrophic scar was observed. Materials and Methods: After review of clinical options, the patient was prescribed nabumetone for 4 weeks. […] The combination of nabumetone and hydrogel was used for 15-18 hours each day for a period of 8 weeks. Clinical progress was followed using photographic imaging as well as patient self-report.

The next assay concerns post-operative scar. Description: Example 4, Patient two: treatment of a raised post-operative leg scar. As for the experimental part:
The patient's chief complaint was difficulty sleeping or resting because of a post-operative orthopoedic right leg scar that was irritated and raised. The patient underwent a medical history and physical examination. Notable medication use was a 325 mg tablet of acetylsalicylic acid orally administered to prevent thrombo-embolic post-operative complications. On examination, a 15 cm raised erythematous post-operative scar of 15 cm length and approximately 3 mm width was noted, with exquisite sensitivity to examination and evidence of excoriation. At the time of exam, the patient denied itching. […] To avoid the use of adhesives, an ace wrap bandage was used to hold the gel—salicylic acid combination in place. Gel plus salicylic acid co-administration was monitored by a daily patient diary. Photographs and patient self report were used to assess treatment results. Itching complaints were followed using a 10 point itching scale. Pre-treatment itching scale was entered as 0, reflecting onset of aspirin use prior therapy. RESULTS: Compliance with treatment regimen was documented daily. […] Itching symptoms were reported at 0.

Assay [3] deals with post-operative caesarean section scar. Kind of assay: Example 5, Patient one: treatment of an itchy caesarean section scar. An excerpt: The patient's chief complaint was a burning itchy sensation in a closed post-operative caesarean section scar. The patient underwent a medical history and physical examination. On examination, an 18 cm irritated lower abdominal vertical healed incision was noted, with evidence of excoriation. […] To avoid the use of adhesives, a control top stretch panty was used to hold the gel—salicylic acid combination in place. Gel plus salicylic acid co-administration was monitored by a daily patient diary. Photographs and patient self report were followed to assess treatment results. Itching complaints were followed using a 10 point itching scale. Pre-treatment itching scale was entered as 6, with the comment that itching bothered the patient “severely, badly.” RESULTS: Compliance with treatment regimen was documented daily. […] On examination, the scar contours appeared to have become more regular and scar color faded.

Setting [4] is: nabumetone, then nabumetone + hydrogel 8 weeks.
[5] abbreviates: 2% salicylic acid under hydrogel, 12 weeks.
[6] abbreviates: 2% salicylic acid under hydrogel.

In the case of `COc1ccc2cc(CCC(C)=O)ccc2c1` [nabumetone, 4-(6-methoxy-2-naphthalenyl)-2-butanone], in the assay with hypertrophic scar [1] (nabumetone + hydrogel), the patient self-report entry was “improved comfort”; the “redness and tenderness on exam” value is “less redness and tenderness”; the “scar color (photographs)” value was “revert to a color tone more closely matching adjacent skin”. Moreover, the “reduction in scar size (examination, ultrasound)” value with hypertrophic scar [1] (oral nabumetone 250-500 mg daily co-administered with AVOGEL hydrogel sheeting 15-18 h/day) was 50%. Also, in the assay with hypertrophic scar [2] (setting [4]), the irregular contours entry is listed as “faded”, the patient self-report result was “improved comfort” and the “scar color on examination” value is “reverted in color to skin tones closely matching adjacent skin”. For the same molecule, in the assay with hypertrophic scar [2] (oral nabumetone 250 mg daily 4 weeks, then with AVOGEL hydrogel sheeting 15-18 h/day for 8 weeks), the “scar height on examination” value is listed as “became flatter”. The “scar visibility on photographic documentation” value in the assay on hypertrophic scar [2] (treatment day 60) is listed as “not observable”.

For the molecule `O=C(O)c1ccccc1O` [salicylic acid], the “shortened measure of the scar, scar contracture (photographs)” value in the assay on post-operative scar (2% salicylic acid topically under AVOGEL hydrogel 15-18 h/day, 12 weeks, patient also on oral acetylsalicylic acid 325 mg) worked out at 25%. Besides, in the assay with post-operative scar (setting [5]), the “evidence of itching or irritation on examination” value is on record as “No evidence of itching or irritation”, the patient report result is reported as “improved sleep with reduction in scar irritation”, the “scar color on examination” value was “lighter than in pre-treatment” and the “scar contours on examination” value is recorded as “flattened”. Moreover, the “itching symptoms (itching scale)” value in the assay on post-operative scar (10 point scale, pre-treatment entered as 0 (aspirin use prior to therapy)) worked out at 0. Besides, the “redness and local irritation at scar site (photographs)” value in assay [3] (2% salicylic acid topically under AVOGEL hydrogel 15-18 h/day, 12 weeks) was “reduced redness and local irritation”. Moreover, in assay [3] (setting [6]), the “evidence of itching or irritation on examination” value was “No evidence of itching or irritation”, the “scar color on examination” value was “faded” and the “scar contours on examination” value is recorded as “more regular”. Further, the “itching symptoms (itching scale)” value in assay [3] (10 point scale, 4th week of treatment, pre-treatment 6) is 3. Also, the “scar irritation and pruritis” value in assay [3] (end of treatment after 20 weeks) was “reduced to infrequent”.
